According to patent publication US20220372171A1, “ANTIBODY DIRECTED AGAINST TENOFOVIR AND DERIVATIVES THEREOF” (priority 2019, published 2022):

How the values were obtained:
HIV [1] = test: Nested case-control analysis: TFV level and protection from HIV acquisition (Partners PrEP Study); format: in vivo
Method: (§1) It was hypothesized that TFV concentrations in urine, measured via an immunoassay, would correlate to those in plasma, the gold standard for short-term PrEP adherence in clinical trials, and associated with protection from HIV. To test this hypothesis, TFV levels were measured in stored urine samples collected from a randomly sampled cohort of HIV-negative men and women from the active PrEP arms in the Partners PrEP Study using enzyme-linked immunosorbent assay (ELISA) (lower limit of quantification [LLOQ] of 1000 ng/mL). Date-matched plasma TFV concentrations were measured using liquid chromatography-tandem mass spectrometry (LC-MS/MS) with an LLOQ of 0.31 ng/mL. Using the same cohort and a purposive sample of all HIV seroconverters on PrEP, a case-cohort analysis was conducted to assess the association between recent urine TFV level ≥1500 ng/mL, a threshold previously shown to accurately predict recent PrEP dosing, and protection from HIV. Weighted Cox proportional hazard models were used and adjusted for age, sex, and sexual behavior.
To assess the association between urine TFV concentrations ≥1,500 ng/mL and protection from HIV acquisition, a nested case-control analysis was conducted. Case samples collected on the date of the first evidence of HIV infection (i.e., first positive test for HIV-1 RNA) were matched with control samples collected at the same study visit month. […]

HIV [2] = test: Urine TFV levels by immunoassay and HIV seroconversion (iPrEx-OLE); format: in vivo
Method: PrEP was provided to 1,085 men who have sex with men (MSM) and 140 transwomen (Grant et al., Lancet Infect Dis, 14: 820-829 (2014)). Urine was collected every 12 weeks and dried blood spots (DBS) were prepared 4 and 8 weeks after PrEP initiation, and then every 12 weeks. DBS assays for TFV-diphosphate (TFV-DP) and FTC-triphosphate (FTC-TP) were analyzed at all visits for participants who seroconverted in the iPrEx open-label extension (iPrEx-OLE) study and in a random subset of those who remained HIV-negative (Grant et al., supra). Hair samples for TFV and FTC were collected every 12 weeks for all who provided opt-in consent and analyzed among seroconverters and a random subset of those who remained HIV-negative (Gandhi et al., Lancet HIV, 3: e521-e528 (2016)). Participants who qualified for the correlation analysis required sample availability from all three biomatrices (urine, DBS, hair) at one or more visits over the duration of iPrEx-OLE (median 72 weeks). Additional urine samples from seroconverters (n=10) were included in the specific analysis looking at the association between urine TFV levels and seroconversion. All individuals in the study provided informed consent, including for sample storage and further testing, and the institutional review board from each study site approved the study.
The upper limit of quantification for the immunoassay was 50,000 ng/mL. Using previously described and validated LC-MS/MS-based methods, TFV-DP and FTC-TP concentration were measured in DBS (Zheng et al., J Pharm Biomed Anal, 122: 16-20 (2016)), and FTC and TFV concentrations were measured in hair (Liu et al., PLoS One, 9: e83736 (2014)).
For the seroconversion analysis, urine TFV concentrations via the immunoassay were compared using Kruskal-Wallis' test among individuals at the seroconversion visit; prior to the seroconversion visit; and those who remained HIV-negative. Receiver operating curves (ROC) were analyzed to identify two urine TFV cut-points and compared with the outcome of future HIV seroconversion. […] The sensitivity and specificity of the urine assay at an undetectable urine TFV level (<1,000 ng/mL) was compared with two levels of inadequate adherence defined by TFV-DP concentrations in DBS: the limit of quantification (<3.5 fmol/punch) and very low adherence (<350 fmol/punch, estimated average weekly adherence of <2 tablets/week) (Grant et al., Lancet Infect Dis, 14: 820-829 (2014)); and Anderson et al., Antimicrob Agents Chemother, 62: e01710-e01717 (2018)). The lower limit of detection for the urine assay (1,000 ng/mL) was selected as the optimal single cut-off based on analysis of ROC curves and prior data examining LC-MS/MS-based methods to quantify TFV levels in urine (Lalley-Chareczko et al., J Acquir Immune Defic Syndr, 79: 173-178 (2018)).

[3] = Plasma TFV concentration by LC-MS/MS, Partners PrEP Study cohort; format: in vivo, human; conditions: Partners PrEP cohort on TDF or TDF/FTC; IQR=1.6-103.0 ng/mL
Method: as §1

HIV [4] = conditions: daily doses; subjects at high risk through sexual transmission and drug use; cited from earlier work
[5] = Urine TFV concentration by ELISA, Partners PrEP Study cohort; format: in vivo, human; conditions: Partners PrEP cohort on TDF or TDF/FTC; IQR=500-90,000 ng/mL
Method: as §1

C[C@H](Cn1cnc2c(N)ncnc21)OCP(=O)(O)O [TFV, tenofovir]
reduction in HIV risk associated with plasma TFV >40 ng/mL (HIV [1]; plasma TFV >40 ng/mL by LC-MS/MS, 95% CI=54-96%): 87%
% HIV risk reduction (95% CI) (HIV [1]; urine TFV ≥1500 ng/mL by immunoassay, unadjusted, TDF/FTC or TDF-only PrEP): 73% (36 to 89%)
urinary TFV level at seroconversion (HIV [2]; at seroconversion (n=9), P<0.001, undetectable = <1,000 ng/mL): undetectable
association of decreasing strata of urine TFV levels with HIV seroconversion (HIV [2]; samples prior to seroconversion visit, P=0.03): associated with future HIV seroconversion
median urinary TFV level (HIV [2]; those who eventually seroconverted (n=11), interquartile range 1,000-12,500): 5,500 ng/mL
median urinary TFV level (HIV [2]; those who remained HIV negative (n=105), interquartile range 1,000-45,000): 15,000 ng/mL
median TFV concentration in plasma via LC-MS/MS [3]: 65.4 ng/mL
reduced incidence of HIV (HIV [4]): 48.9%
median TFV concentration in urine via ELISA [5]: 37,500 ng/mL
